Activity calls are given as the source filed them.

One assay concerns the target Beta-galactosidase (Escherichia coli, UniProt Q8VNN2). In words: PubChem AID 485352. In kind it is functional.
Assay [1] can be described thus: Vero E6 cell cytotoxicity, dose response, cytotoxicity control for non-replicating M. tuberculosis project, secondary assay (AID 492998). The assay is classed as functional, VeroE6. Conditions: Vero C1008.
In assay [2] the target is Sphingosine 1-phosphate receptor 1 (Homo sapiens, UniProt P21453). The assay is classed as functional.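 Note: Tango beta-arrestin reporter U2OS cells stimulated with S1P near its EC80; inhibitor potency meaning antagonism of receptor activation by the natural agonist.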
Assay [3] is described as follows: non-specific 3'UTR reporter inhibition in Clone20-Shn3RL – cell-based, Renilla luciferase, cherry-picked, counter-screen for Shn3 inhibitor project, dose response (AID 624133). In kind it is functional.
Assay [4] can be described thus: decrease of insulin promoter-GFP reporter – imaging, high-content screening, mouse beta cells (AID 1628). The conditions noted are these: MIN6. In kind it is functional.
Assay [5] has as its target T1, Type-1 angiotensin II receptor (Homo sapiens, UniProt P30556).
T1 sequence (P30556 whole entry): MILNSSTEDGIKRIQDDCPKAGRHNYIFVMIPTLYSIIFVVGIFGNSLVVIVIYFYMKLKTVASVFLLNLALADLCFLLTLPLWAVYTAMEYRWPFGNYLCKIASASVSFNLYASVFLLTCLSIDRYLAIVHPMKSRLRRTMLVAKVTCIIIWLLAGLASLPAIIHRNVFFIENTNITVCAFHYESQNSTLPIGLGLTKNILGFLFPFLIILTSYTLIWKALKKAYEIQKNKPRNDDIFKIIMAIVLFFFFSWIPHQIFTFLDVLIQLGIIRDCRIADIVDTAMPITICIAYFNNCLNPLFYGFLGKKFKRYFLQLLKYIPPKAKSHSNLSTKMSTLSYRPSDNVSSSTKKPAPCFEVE
Put plainly: antagonism of angiotensin II type 1 receptor – cell-based, uHTS hits, selectivity assay for APJ receptor antagonist project, dose response (AID 463214).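 Note: antagonist potency against angiotensin II stimulated AT1 response.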 In kind it is functional.

Assay [6] in a line: Luminescent dose response cell-based high throughput screening assay for inhibitors of the Janus kinase 2 mutant JAK2V617F. [Related pubchem assays: 1446 (Primary screen.), 1521 (Confirmation assay.), 1486 (Counter screen.)]. The assay is classed as functional. For orientation: Counterscreens check selectivity or assay interference.
The target of assay [7] is Peroxisome proliferator-activated receptor gamma/Nuclear receptor coactivator 1 (Homo sapiens, UniProt P37231). Put plainly: TR-FRET dose response biochemical High Throughput Screening assay for agonists of the steroid receptor coactivator 1 (SRC-1) recruitment by the peroxisome proliferator-activated receptor gamma (PPAR gamma): non-selective agonists. [Related pubchem assays (depositor defined):AID1300, AID1808, AID504735, AID631]. The assay is classed as protein assay. Background: TR-FRET usually uses a lanthanide donor and a delayed reading to cut background.

Assay [8] concerns the target T2, Mannose-6-phosphate isomerase (Homo sapiens, UniProt P34949).
T2 sequence (P34949 whole entry): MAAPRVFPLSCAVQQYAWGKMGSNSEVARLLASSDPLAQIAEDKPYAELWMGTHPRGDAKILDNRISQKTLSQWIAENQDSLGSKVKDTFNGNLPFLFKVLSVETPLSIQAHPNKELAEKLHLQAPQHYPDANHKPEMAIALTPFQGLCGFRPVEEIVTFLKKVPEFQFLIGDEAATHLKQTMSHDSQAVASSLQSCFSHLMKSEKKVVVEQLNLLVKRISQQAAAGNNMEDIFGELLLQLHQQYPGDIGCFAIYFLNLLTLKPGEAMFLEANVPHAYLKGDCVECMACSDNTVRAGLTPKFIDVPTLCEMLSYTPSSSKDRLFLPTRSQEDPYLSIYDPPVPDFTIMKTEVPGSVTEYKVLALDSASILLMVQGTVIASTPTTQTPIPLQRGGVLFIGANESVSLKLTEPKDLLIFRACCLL
Put plainly: MPI inhibition at elevated mannose 6-phosphate – biochemical, fluorescence intensity, high mannose 6-phosphate, primary screen (AID 1220).

Assay [9] has as its target Peroxisome proliferator-activated receptor gamma/Nuclear receptor coactivator 2 (Homo sapiens, UniProt P37231). In words: TR-FRET dose response biochemical High Throughput Screening assay for agonists of the steroid receptor coactivator 2 (SRC-2) recruitment by the peroxisome proliferator-activated receptor gamma (PPAR gamma): non-selective agonists. [Related pubchem assays: 1297, 1032 ]. The assay is classed as functional.

A short description of assay [10]: viability of HCT116 lacking mutant beta-catenin – cell-based, human colon tumor, dose response (AID 1045).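 Note: HCT116 colon tumor cells with beta catenin knocked out; cells exposed to compound for 60 hours.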 The assay is classed as functional.
Assay [11] in a line: blockers of HIV-1 envelope-mediated cell-cell fusion – cherry-pick, dose response (AID 652057). The assay is classed as functional, cell-based.
Assay [12] can be described thus: blockers of HIV-1 ZM109 envelope-driven cell-cell fusion – HeLa effector, CEM target cells, luciferase, cherry-pick, dose response (AID 652058).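 Note: luciferase signal from HIV-1 Env mediated cell-cell fusion of effector and target cells.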 In kind it is functional, cell-based.
The target of the next assay is T3, Streptokinase A (Streptococcus pyogenes serotype M1, UniProt P10520).
T3 sequence (P10520 whole entry): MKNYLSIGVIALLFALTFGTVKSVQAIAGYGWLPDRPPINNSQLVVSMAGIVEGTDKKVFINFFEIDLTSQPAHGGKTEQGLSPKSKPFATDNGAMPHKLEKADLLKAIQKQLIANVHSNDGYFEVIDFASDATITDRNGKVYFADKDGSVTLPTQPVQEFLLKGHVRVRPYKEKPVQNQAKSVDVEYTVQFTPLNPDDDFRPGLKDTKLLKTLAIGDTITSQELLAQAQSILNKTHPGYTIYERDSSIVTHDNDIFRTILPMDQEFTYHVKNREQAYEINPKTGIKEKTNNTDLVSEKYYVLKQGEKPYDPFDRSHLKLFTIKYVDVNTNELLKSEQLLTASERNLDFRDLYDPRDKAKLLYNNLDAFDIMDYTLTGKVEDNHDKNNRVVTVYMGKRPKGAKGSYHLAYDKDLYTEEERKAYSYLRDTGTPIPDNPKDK
Put plainly: viability-normalized secreted streptokinase activity reduction – plasminogen activation absorbance, OD405, dose response (AID 1914).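 Note: secreted streptokinase activity via plasminogen activation per viability signal from cell pellet.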 The assay is classed as functional, Streptococcus pyogenes M1 GAS.

Assay [13] addresses T4, Heat shock factor protein 1 (Mus musculus, UniProt P38532).
T4 sequence (P38532 whole entry): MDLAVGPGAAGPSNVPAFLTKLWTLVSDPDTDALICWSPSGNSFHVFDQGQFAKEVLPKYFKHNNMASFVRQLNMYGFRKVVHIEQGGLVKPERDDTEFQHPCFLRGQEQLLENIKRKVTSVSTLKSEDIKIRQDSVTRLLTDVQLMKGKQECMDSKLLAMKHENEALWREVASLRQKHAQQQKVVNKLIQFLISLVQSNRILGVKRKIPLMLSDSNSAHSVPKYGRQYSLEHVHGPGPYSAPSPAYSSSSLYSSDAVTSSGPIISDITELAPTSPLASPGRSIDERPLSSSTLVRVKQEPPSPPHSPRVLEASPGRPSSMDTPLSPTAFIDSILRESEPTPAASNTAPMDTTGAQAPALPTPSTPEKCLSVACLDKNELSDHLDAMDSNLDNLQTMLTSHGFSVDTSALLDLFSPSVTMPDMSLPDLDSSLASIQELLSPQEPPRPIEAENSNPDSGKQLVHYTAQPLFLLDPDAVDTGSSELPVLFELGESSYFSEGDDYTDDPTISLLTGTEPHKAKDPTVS
In words: enhancement of HSF1-driven luciferase signal – cell-based, NIH3T3, luminescence, dose retest, confirmation (AID 435004).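 Note: stress induced by proteasome inhibitor MG132 added 30 min after compound; luciferase reporter driven by HSF1 response element in NIH3T3 cells; actives raise luminescence as potentiators of the MG132 stress response.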 The assay is classed as functional.

The nature of assay [14]: luciferase reporter signal suppression in cells – H4 neuroglioma cells, luminescence, dose response (AID 1990). The assay is classed as functional, cell-based. For orientation: In a reporter assay the amount or activity of a reporter protein is the signal.
The next assay relates to BJ. Put plainly: cells. The assay is classed as functional, cell-based. The conditions noted are these: Homo sapiens.
A short description of assay [15]: Luminescence Cell-Based Dose Response HTS to Identify Inhibitors of 5'UTR Stem-Loop Driven Prion Protein mRNA Translation in H4 Neuroglioblastoma Cells. [Related pubchem assays: 1827 (Project Summary), 1813 (Primary HTS)]. In kind it is functional.

Chain of Sphingosine 1-phosphate receptor 1 (P21453 whole entry): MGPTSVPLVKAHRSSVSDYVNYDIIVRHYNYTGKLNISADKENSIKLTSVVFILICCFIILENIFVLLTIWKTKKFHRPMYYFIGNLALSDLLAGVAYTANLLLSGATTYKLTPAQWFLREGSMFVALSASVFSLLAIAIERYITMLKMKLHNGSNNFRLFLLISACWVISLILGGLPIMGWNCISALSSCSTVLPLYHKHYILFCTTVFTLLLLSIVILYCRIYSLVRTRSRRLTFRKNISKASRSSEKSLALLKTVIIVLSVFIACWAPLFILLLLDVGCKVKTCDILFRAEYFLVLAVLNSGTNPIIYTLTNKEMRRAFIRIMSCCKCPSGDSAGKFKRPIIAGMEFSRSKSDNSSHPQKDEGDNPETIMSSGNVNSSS
Chain of Peroxisome proliferator-activated receptor gamma/Nuclear receptor coactivator 2 (P37231 whole entry): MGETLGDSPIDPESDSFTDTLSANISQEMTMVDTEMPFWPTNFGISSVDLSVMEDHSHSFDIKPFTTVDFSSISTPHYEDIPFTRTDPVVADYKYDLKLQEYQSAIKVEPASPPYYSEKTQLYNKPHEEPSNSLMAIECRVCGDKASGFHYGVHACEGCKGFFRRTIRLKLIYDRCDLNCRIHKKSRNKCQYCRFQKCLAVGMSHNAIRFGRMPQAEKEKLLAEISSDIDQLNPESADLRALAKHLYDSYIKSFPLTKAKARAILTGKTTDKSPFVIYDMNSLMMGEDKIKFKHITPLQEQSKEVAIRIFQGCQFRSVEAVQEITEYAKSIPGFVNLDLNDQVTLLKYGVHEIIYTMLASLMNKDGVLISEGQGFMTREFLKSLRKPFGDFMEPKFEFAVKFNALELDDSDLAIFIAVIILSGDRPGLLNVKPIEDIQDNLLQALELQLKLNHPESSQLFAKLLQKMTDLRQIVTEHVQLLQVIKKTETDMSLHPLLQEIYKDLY
Chain of Peroxisome proliferator-activated receptor gamma/Nuclear receptor coactivator 2 (Q15596 whole entry, further chain): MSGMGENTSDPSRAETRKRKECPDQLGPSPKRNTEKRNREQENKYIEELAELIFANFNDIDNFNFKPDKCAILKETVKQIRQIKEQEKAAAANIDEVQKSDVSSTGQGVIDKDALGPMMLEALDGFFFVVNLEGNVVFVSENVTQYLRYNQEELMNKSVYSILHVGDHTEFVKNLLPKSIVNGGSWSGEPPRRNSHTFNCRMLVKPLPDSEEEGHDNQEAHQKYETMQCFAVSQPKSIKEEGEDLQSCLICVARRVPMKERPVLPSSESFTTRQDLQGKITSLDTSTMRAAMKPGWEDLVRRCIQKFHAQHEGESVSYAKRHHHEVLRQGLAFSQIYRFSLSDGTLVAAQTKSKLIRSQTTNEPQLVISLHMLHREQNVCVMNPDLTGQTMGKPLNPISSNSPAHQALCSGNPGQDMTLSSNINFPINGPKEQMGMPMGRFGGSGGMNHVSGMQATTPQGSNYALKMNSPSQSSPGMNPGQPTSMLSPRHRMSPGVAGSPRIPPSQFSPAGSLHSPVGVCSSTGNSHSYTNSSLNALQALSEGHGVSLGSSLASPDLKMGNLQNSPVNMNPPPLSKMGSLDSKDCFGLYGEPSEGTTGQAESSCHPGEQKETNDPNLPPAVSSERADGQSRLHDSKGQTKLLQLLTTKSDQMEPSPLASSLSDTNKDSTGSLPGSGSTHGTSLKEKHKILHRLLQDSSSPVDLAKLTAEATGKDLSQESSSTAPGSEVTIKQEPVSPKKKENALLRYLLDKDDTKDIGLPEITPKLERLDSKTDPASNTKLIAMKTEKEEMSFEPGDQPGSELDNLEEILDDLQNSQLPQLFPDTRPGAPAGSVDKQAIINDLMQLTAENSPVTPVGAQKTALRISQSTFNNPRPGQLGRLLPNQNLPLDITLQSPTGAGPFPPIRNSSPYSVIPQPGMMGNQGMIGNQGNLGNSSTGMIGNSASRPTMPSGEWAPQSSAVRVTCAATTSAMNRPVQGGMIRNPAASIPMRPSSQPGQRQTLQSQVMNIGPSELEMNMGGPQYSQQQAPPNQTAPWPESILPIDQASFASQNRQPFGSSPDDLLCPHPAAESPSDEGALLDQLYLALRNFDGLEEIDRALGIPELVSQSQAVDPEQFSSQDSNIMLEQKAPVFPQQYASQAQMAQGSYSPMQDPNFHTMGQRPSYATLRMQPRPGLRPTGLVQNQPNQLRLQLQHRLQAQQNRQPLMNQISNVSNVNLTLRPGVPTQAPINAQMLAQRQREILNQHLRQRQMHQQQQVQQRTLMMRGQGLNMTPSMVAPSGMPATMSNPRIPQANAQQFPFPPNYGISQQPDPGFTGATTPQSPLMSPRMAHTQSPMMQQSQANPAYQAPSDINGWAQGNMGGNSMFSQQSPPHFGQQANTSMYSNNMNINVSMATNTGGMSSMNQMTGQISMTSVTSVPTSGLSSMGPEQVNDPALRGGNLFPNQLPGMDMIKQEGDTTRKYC
Chain of Peroxisome proliferator-activated receptor gamma/Nuclear receptor coactivator 1 (P37231 whole entry): as the sequence (P37231 whole entry) above
Chain of Peroxisome proliferator-activated receptor gamma/Nuclear receptor coactivator 1 (Q15788 whole entry, further chain): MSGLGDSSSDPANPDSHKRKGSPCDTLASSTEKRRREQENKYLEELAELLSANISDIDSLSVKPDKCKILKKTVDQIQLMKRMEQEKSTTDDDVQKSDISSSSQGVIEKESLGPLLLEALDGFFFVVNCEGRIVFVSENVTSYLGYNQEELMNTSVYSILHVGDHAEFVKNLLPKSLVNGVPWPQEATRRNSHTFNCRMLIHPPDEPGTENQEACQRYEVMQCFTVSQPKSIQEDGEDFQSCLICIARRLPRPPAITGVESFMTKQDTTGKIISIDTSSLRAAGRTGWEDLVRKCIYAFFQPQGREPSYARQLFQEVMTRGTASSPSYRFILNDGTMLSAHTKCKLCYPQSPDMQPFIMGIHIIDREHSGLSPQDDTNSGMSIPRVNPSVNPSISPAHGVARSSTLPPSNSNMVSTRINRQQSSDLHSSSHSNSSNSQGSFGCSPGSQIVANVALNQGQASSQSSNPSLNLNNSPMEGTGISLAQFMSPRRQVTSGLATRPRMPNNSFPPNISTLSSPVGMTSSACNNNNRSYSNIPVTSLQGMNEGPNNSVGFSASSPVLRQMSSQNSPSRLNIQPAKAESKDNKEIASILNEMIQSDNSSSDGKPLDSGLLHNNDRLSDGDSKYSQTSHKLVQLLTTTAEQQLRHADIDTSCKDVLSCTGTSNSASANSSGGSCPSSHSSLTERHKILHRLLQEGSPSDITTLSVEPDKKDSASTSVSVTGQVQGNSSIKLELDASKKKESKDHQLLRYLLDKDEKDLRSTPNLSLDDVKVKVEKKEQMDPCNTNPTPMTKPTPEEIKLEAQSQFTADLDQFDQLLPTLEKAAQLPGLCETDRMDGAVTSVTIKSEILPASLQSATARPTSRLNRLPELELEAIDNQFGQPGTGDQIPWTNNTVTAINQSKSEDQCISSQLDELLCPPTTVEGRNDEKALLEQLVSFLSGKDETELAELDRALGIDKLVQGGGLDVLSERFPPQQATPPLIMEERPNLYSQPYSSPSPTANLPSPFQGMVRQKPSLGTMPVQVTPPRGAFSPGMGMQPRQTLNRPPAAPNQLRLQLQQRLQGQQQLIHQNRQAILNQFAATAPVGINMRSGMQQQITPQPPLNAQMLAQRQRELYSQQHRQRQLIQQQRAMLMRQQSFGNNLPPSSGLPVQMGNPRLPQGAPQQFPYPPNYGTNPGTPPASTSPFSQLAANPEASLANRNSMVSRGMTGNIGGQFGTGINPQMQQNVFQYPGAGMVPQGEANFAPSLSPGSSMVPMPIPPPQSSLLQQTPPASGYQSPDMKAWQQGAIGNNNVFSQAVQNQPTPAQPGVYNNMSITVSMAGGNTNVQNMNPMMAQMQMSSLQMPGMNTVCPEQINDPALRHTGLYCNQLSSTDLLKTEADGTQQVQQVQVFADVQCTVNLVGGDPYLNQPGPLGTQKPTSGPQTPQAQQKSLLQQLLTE

The term EC50 denotes the concentration giving half of the maximal effect. The CC50 is the concentration that lowers cell viability or growth by half. As usually defined, the IC50 is the point on the concentration scale where inhibition reaches its midpoint. For orientation: AC50 means the midpoint of the concentration-response curve, whichever way the signal moves. Take `Oc1c(C(c2ccccc2Cl)N2CCCC2)ccc2cccnc12` (stereo not drawn): the EC50 at Beta-galactosidase was > 40 µM (inactive). The CC50 in [1] is 9.56 µM (active). Moreover, the IC50 was 5.93 µM (active) in assay [2], 5.2 µM (active) in assay [4] and 12 µM (active) in [5]. Moreover, the AC50 in [3] was 6.38 µM (active).
On to `[O-][N+]1=c2ccc(Nc3ccccc3)cc2=NC12CCCCC2`, for which the half-inhibitory concentration (IC50) was 0.637 µM (active) in [6] and 48.2 µM (active) in assay [8]. Further, the EC50 in [7] was 14.9 µM (inactive); in assay [9], 14.4 µM (not active); in [10] it was 1.62 µM (active).
Consider `CCc1ccc(S(=O)(=O)/N=C2\C=C(Nc3ccc(C(=O)O)cc3)C(=O)c3ccccc32)cc1`, for which the concentration at half-maximal activity (AC50) is 8.79 µM (active) in [11] and 6.74 µM (active) in assay [12]. The 50% effective concentration (EC50) at Streptokinase A is > 150 µM (not active).
Turning to `COc1cccc(/C=N/Nc2ccc([N+](=O)[O-])cn2)c1O`, the EC50 in assay [13] is 3.08 µM (active); in assay [14] it was 2.97 µM (active); in the assay on BJ, 9.14 µM (inconclusive); in [15], 0.34 µM (active).

Values taken from ChEMBL document CHEMBL1201862, “PubChem BioAssay data set” (2004).
